Data taken from patent publication US9884806B2, “Cyclic vinylogous amides as bromodomain inhibitors” (ICAHN SCHOOL OF MEDICINE AT MOUNT SINAI, priority 2013, dated 2018).
pIC50: −log10 of the molar value.

Experiments:
[1] = molecular target: T1, first bromodomain (BrD1) of human BRD4 (Homo sapiens, UniProt O60885); experiment: Fluorescence anisotropy binding assay (competition with FITC-labeled MS417 probe); conditions: FITC-MS417 probe 80 nM, PBS pH 7.4, 1 hour, 25° C., read-out: BRD4_1 IC50
T1 construct: the first bromodomain (BrD1) of human BRD4; poly-His (cleaved yes); made in house
Method in brief: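 Competitive fluorescence anisotropy in PBS pH 7.4: 80 nM FITC-MS417 probe, 0.25 to 1 μM tag-cleaved BrD1, titrated unlabeled ligand, 1 hour at 25° C. IC50 values were fitted and converted to Ki using a corrected Cheng-Prusoff equation assuming one-site competition.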

BRD4_2 = molecular target: T2, BRD4_2 (Homo sapiens, UniProt O60885); experiment: Fluorescence anisotropy binding assay (competition with FITC-labeled MS417 probe), BRD4_2; conditions: FITC-MS417 probe 80 nM, PBS pH 7.4, 1 hour, 25° C.
T2 construct: contains two tandem bromodomains (BrD1 and BrD2)

SMILES | melting point [°C] | pIC50 [1] | pIC50 (BRD4_2)
CC1=C(Nc2ccc(S(=O)(=O)Nc3ccccn3)cc2)CCC1=O (hydrate or solvate) [Example 01-31, 4-((2-methyl-3-oxocyclopent-1-en-1-yl)amino)-N-(pyridin-2-yl)benzenesulfonamide] | 230 to 233 | – | –
CC1=C(Nc2ccc(CC(=O)O)cc2)CCCC1=O [Example 01-38, 2-(4((2-methyl-3-oxocyclohex-1-en-1-yl)amino)phenyl)acetic acid] | 215 to 219 | – | –
CC1=C(Nc2cc(C(=O)O)ccc2C(F)(F)F)CCCC1=O | 209 to 212 | – | –
CC1=C(Nc2cc(S(N)(=O)=O)ccc2Cl)CCC1=O (hydrate or solvate) [Example 01-46, 4-chloro-3-((2-methyl-3-oxocyclopent-1-en-1-yl)amino)benzene-sulfonamide] | 223 to 225 | – | –
CC1=C(Nc2ccc(C(=O)O)cc2Cl)CCC1=O [Example 02-02, 3-chloro-4((2-methyl-3-oxocyclopent-1-en-1-yl)amino)benzoic acid] | 226 to 230 | – | –
CC1=C(Nc2ccccc2C(=O)O)CCC1=O [Example 02-04, 2-((2-methyl-3-oxocyclopent-1-en-1-yl)amino)benzoic acid] | 245 to 248 | – | –
CC1=C(Nc2ccc(Cl)cc2C(=O)O)CCC1=O [Example 02-05, 5-chloro-2-((2-methyl-3-oxocyclopent-1-en-1-yl)amino)benzoic acid] | 242 to 245 | – | –
CC1=C(Nc2cccc(C(=O)O)c2)CCC1=O [Example 01-03, 3((2-methyl-3-oxocyclopent-1-en-1-yl)amino)benzoic acid] | 236 to 238 | – | –
CC1=C(Nc2cccc(S(N)(=O)=O)c2)CCC1=O (hydrate or solvate) [Example 01-45, 3((2-methyl-3-oxocyclopent-1-en-1-yl)amino)benzenesulfonamide] | 223 to 225 | – | –
CC(=O)Nc1ccc(Cl)c(NC2=C(C)C(=O)CCC2)c1 [Example 01-47, N-(4-chloro-3-((2-methyl-3-oxocyclohex-1-en-1-yl)amino)phenyl)-acetamide] | 234 to 236 | – | –
COc1c(NC2=C(C)C(=O)CC2)cccc1C(=O)O | 220 to 223 | – | –
CC1=C(NC2(C(F)(F)F)C=CC(C(=O)O)=CC2)CCCC1=O (stereo not shown) | 229 to 231 | – | –
CC1=C(Nc2cc(Cl)c(C(=O)O)cc2Cl)CCC1=O | 229 to 232 | – | –
CC1=C(N[C@H]2CC[C@H](C(=O)O)CC2)CCC1=O (hydrate or solvate) [Example 01-33, trans-(1R,4R)-4-((2-methyl-3-oxocyclopent-1-en-1-yl)amino)cyclo6hexane-carboxylic acid] | 236 to 238 | – | –
CC1=C(Nc2ccc(S(N)(=O)=O)cc2)CCC1=O (hydrate or solvate) [Example 01-06, 4-((2-methyl-3-oxocyclopent-1-en-1-yl)amino)benzenesulfonamide] | 245 to 247 | – | –
CC1=C(N[C@H]2CC[C@@H](C(=O)O)CC2)CCC1=O (hydrate or solvate) [Example 01-34, cis-(1S,4S)-4-((2-methyl-3-oxocyclopent-1-en-1-yl)amino)cyclohexanecarboxylic acid] | 233 to 235 | – | –
COc1cc(NC2=C(C)C(=O)CC2)ccc1C(=O)O [Example 02-03, 2-methoxy-4((2-methyl-3-oxocyclopent-1-en-1-yl)amino)benzoic acid] | 240 to 243 | – | –
CC1=C(Nc2ccc(C#N)cc2)CCC1=O (hydrate or solvate) [Example 01-07, 4-((2-methyl-3-oxocyclopent-1-en-1-yl)amino)benzonitrile] | 204 to 206 | – | –
COC(=O)c1cccc(NC2=C(C)C(=O)CC2)c1 [Example 01-04, methyl 3-((2-methyl-3-oxocyclopent-1-en-1-yl)amino)benzoate] | 133 to 135 | – | –
CC1=C(N[C@H]2CC[C@@H](C(=O)O)CC2)CCC1=O [Example 01-34, cis-(1S,4S)-4-((2-methyl-3-oxocyclopent-1-en-1-yl)amino)cyclohexanecarboxylic acid] | – | < 5.00 | < 5.00
COC(=O)c1ccc(NC2=CC(=O)CC2)cc1 [Example 01-1] | – | 5.00 to 6.00 | 5.00 to 6.00

Results, then the compound that gave them:

melting point [°C] | pIC50 [1] | pIC50 (BRD4_2) | SMILES
263 to 264 | – | – | CC1=C(Nc2ccc(C(=O)O)cc2I)CCC1=O [Example 02-08, 3-iodo-4-((2-methyl-3-oxocyclopent-1-en-1-yl)amino)benzoic acid]
210 to 213 | – | – | CC1=C(Nc2ccc(C(=O)O)cc2F)CCC1=O [Example 02-06, 3-fluoro-4((2-methyl-3-oxocyclopent-1-en-1-yl)amino)benzoic acid]
– | 5.00 to 6.00 | 5.00 to 6.00 | COc1ccccc1NC(=O)c1ccc(NC2=C(C)C(=O)CC2)cc1 [Example 03-10, N-(2-methoxyphenyl)-4-((2-methyl-3-oxocyclopent-1-en-1-yl)amino)benzamide]
– | > 6.00 | 5.00 to 6.00 | COc1ccc(NC(=O)c2cc(NC3=C(C)C(=O)CCC3)cc3ccccc23)cc1 [Example 04-105, N-(4-methoxyphenyl)-3-((2-methyl-3-oxocyclohex-1-en-1-yl)amino)-1-naphthamide]
– | 5.00 to 6.00 | 5.00 to 6.00 | CC1=C(Nc2ccc(C(=O)NC3CCCCC3)cc2C)CCC1=O [Example 04-78, N-cyclohexyl-3-methyl-4-((2-methyl-3-oxocyclopent-1-en-1-yl)amino)benzamide]
– | < 5.00 | < 5.00 | CC1=C(N[C@H]2CC[C@H](C(=O)Nc3ccc(C)cc3)CC2)CCC1=O [Example 04-32, (1R,4R)-4-((2-methyl-3-oxocyclopent-1-en-1-yl)amino)-N-(p-tolyl)-cyclohexanecarboxamide]
– | 5.00 to 6.00 | 5.00 to 6.00 | COc1cc(NC2=C(C)C(=O)CC2)ccc1C(=O)Nc1ccccc1 [Example 04-68, 2-methoxy-4-((2-methyl-3-oxocyclopent-1-en-1-yl)amino)-N-phenylbenzamide]
– | 5.00 to 6.00 | 5.00 to 6.00 | CC1=C(Nc2ccc(C(=O)Nc3cccc4ccccc34)cc2C)CCC1=O [Example 04-79, 3-methyl-4-((2-methyl-3-oxocyclopent-1-en-1-yl)amino)-N-(naphthalen-1-yl)benzamide]
– | 5.00 to 6.00 | 5.00 to 6.00 | CC1=C(Nc2cccc(C(=O)Nc3ccccc3)c2)CCC1=O [Example 03-23, 3((2-methyl-3-oxocyclopent-1-en-1-yl)amino)-N-phenylbenzamide]
– | > 6.00 | < 5.00 | COc1ccccc1NC(=O)c1ccc(NC2=C(C)C(=O)CC2)cc1OC [Example 04-69, 2-methoxy-N-(2-methoxyphenyl)-4-((2-methyl-3-oxocyclopent-1-en-1-yl)amino)-benzamide]
– | < 5.00 | < 5.00 | COc1cc(NC2=C(C)C(=O)CC2)ccc1C(=O)O [Examples 02-3]
– | > 6.00 | 5.00 to 6.00 | CC1=C(Nc2ccc(C(=O)Nc3cccc(C)c3)cc2Cl)CCC1=O [Example 04-21, 3-chloro-4-((2-methyl-3-oxocyclopent-1-en-1-yl)amino)-N-(m-tolyl)benzamide]
– | 5.00 to 6.00 | 5.00 to 6.00 | CC1=C(Nc2cccc(C(=O)Nc3ccccc3C)c2)CCC1=O [Example 04-5]
– | < 5.00 | < 5.00 | CC1=C(Nc2ccc(C(=O)N(C)c3ccccc3)cc2)CCC1=O [Example 03-2]
